# Measured values as given in patent EP3797781A1, “USE OF EC-7072 AND SYNERGIC COMPOSITIONS THEREOF IN TREATMENT OF CHRONIC LYMPHOCYTIC LEUKEMIA” (priority 2019, dated 2021).
# Columns and labels:
# Format in all cases: cell-based, human
# T cells and NK cells = assay: Intracellular staining of IFN-γ and perforin upon PMA/ionomycin stimulation; settings: 200 nM, 24 hours, PBMCs from patients with CLL (n = 4)
# Experimental: PBMCs from patients with CLL were treated with 200 nM EC-7072 or DMSO for 24 hours and stimulated with PMA (50 ng/mL) and ionomycin (1 µg/mL) for 5 hours in the presence of GolgiPlug protein transport inhibitor (Beckton Dickinson). T cells and NK cells were then analyzed for intracellular levels of IFN-γ and perforin by flow cytometry.
# The effect of EC-7072 toward healthy immune subsets, T lymphocytes and natural killer (NK) cells, which are chronically exposed to leukemia cells in the peripheral blood of patients with CLL was assessed by: • (i) incubating PBMCs isolated from patients with CLL (n = 10) following treatment with increasing concentrations of EC-7072 (0 - 400 nM) for 24 hours. Numbers of T cells (CD3^+CD56^-) (Figure 2A) and NK cells (CD3^-CD56^+) (Figure 2B) were evaluated by flow cytometry and normalized to their respective control (DMSO) condition for each individual patient to obtain percentage of relative number of T cells and NK cells, respectively; • (ii) incubating PBMCs isolated from patients with CLL (n = 6 - 10) following treatment with increasing concentrations of EC-7072 (0 - 400 nM) for 24 hours. […]
# [1] = tested on: primary fibroblasts from healthy donors; assay: Cell death of primary fibroblasts by PI staining; settings: 200 nM, 24 hours; n = 4
# Experimental: Effectiveness of EC-7072 against different B-cell malignancies was assessed by; • (i) incubating primary fibroblasts from healthy donors (n = 4) and HK-2 cells from healthy human adult kidney (n = 3) following treatment with MTA (200 nM) or EC-7072 (200 nM) for 24 hours. Cell death was evaluated by PI staining to obtain the percentages corresponding to the [PI^+] subset (Figure 5A) and the mean percentage of [PI^+] cells (Figure 5B); • (ii) treating MEC-1, GRANTA-519, Z-138, JVM-2, CA-46, Ramos, Raji and U266 cell lines (n = 3) following treatment with EC-7072 (500 nM) followed by incubation for 24 hours. Cell viability was assessed by DiOC6(3)/PI staining and normalized to control (DMSO) condition to obtain mean percentage of viable [DiOC6(3)^+] cells (Figure 5C).
# BCL2 = BCL2 levels by intracellular flow cytometry in isolated CLL cells; settings: 200 nM, 12 and 18 hours; isolated CLL cells (n = 6)
# Experimental: (§1) The dysregulation of BCL2 expression in primary CLL by EC-7072 was evaluated by: • (i) incubating isolated CLL cells (n = 6) from patients with CLL following treatment with EC-7072 (200 nM) for 6 hours and extracting total RNA. Relative expression of BLC2 was determined by qPCR to obtain the mean relative expression to the control (DMSO) condition (Figure 6F); • (ii) incubating isolated CLL cells (n = 6) following treatment with 200 nM EC-7072 for 12 and 18 hours. BCL2 levels were evaluated by intracellular flow cytometry (Figure 6G); • (iii) incubating isolated T cells (n = 3) from patients with CLL following treatment with EC-7072 (200 nM) for 6 hours and extracting total RNA. Relative expression of BLC2 was determined by qPCR to obtain the mean relative expression to the control (DMSO) condition (Figure 6H); • (iv) incubating PBMCs (Figure 6I) and isolated T cells (Figure 6J) from patients with CLL (n = 3) following treatment with 200 nM EC-7072 for 24 hours. T-cell death and apoptosis were assessed by DiOC6(3)/PI staining to obtain percentages of viable [DiOC6(3)^+] cells and the mean percentages of apoptotic [DiOC6(3)^low PI^-] and dead [PI^+] cells.
# [2] = tested on: isolated T cells from patients with CLL; assay: qPCR analysis of BCL2 expression in isolated T cells; settings: 200 nM, 6 hours; n = 3
# Experimental: Isolated leukemia cells from patients with CLL were incubated with EC-7072 (200 nM) or DMSO for 6 hours. Total RNA was extracted using RNeasy Mini Kit (Qiagen). 2 µg total RNA were used for cDNA synthesis using High-Capacity cDNA Reverse Transcription Kit (Applied Biosystems). Quantitative RT-PCR was performed using SYBR Green PCR Master Mix (Applied Biosystems) in a 7300 Real-Time PCR System and each sample was analyzed in triplicate. Table 1. Primers used in qPCR
# as §1, with “Relative expression of BLC2 was determined by qPCR to obtain the mean relative expression to the control (DMSO) condition (Figure 6H); • (iv) incubating PBMCs (Figure 6I) and isolated T cells (Figure 6J) from patients with CLL (n = 3) following treatment with 200 nM EC-7072 for 24 hours.” left out
smiles,measurement,setting,value
"CO[C@@H]([C@@H]1Cc2cc3cc(O[C@H]4C[C@@H](O[C@H]5C[C@@H](O)[C@H](O)[C@@H](C)O5)[C@H](O)[C@@H](C)O4)c(C)c(O)c3c(O)c2C(=O)[C@H]1O[C@H]1C[C@@H](O[C@H]2C[C@@H](O[C@H]3C[C@](C)(O)[C@H](O)[C@@H](C)O3)[C@@H](O)[C@@H](C)O2)[C@H](O)[C@@H](C)O1)[C@@H](O)C(C)=O [EC-7072, mithramycin SK]",production of interferon (IFN)-γ and perforin by T cells and NK cells,T cells and NK cells,not significantly altered
same,viability of primary human fibroblasts (PI^+ cells),[1],did not markedly affect the viability
same,protein levels of BCL2,BCL2,"mild, but significant, decrease"
same,BCL2 expression in T cells,[2],not modulated
